{"source": "patent US20240408100A1", "about": "“TREATMENT METHODS FOR SUBJECTS HAVING CANCER WITH A DYSREGULATED MAPK AND/OR PI3K PATHWAY” (TAIHO PHARMACEUTICAL CO., LTD., priority 2021, published 2024)", "key": {"[1]": {"tested_on": "LS180 human colorectal tumor xenografts", "assay": "antitumor effect in mice with LS180 xenograft tumors", "type": "in vivo", "settings": "80 mg/kg/day", "protocol": "The oncogenic KRAS mutations are diverse, including not only G12C but also G12X and G13X in the mutation hotspot Glycine at […]. To determine whether Compound (1), which targets downstream of MAPK and PI3K signaling, is effective against G12D mutated cancers, an efficacy experiment of Compound (1) was conducted using subcutaneously transplanted LS180 tumor derived from colorectal cancers with KRAS G12D and PIK3CA and PTEN gene alterations.\nEvaluation was conducted by comparing the efficacy of 80 mg/kg/day of Compound (1) with that of 1 mg/kg/day MEK inhibitor trametinib used as a reference group."}, "[2]": {"tested_on": "NF1 mutant cell lines", "assay": "growth inhibition assay, summary over the panel", "type": "cell-based", "settings": "Homo sapiens; NF1 mutant cell lines except for MDA-MB-231 cells; read-out: IC50 value", "from_the_text": "(§1) In order to investigate the growth inhibitory effect of Compound (1) in NF1 mutant cancer cell lines, the IC50 values of growth inhibition assay were obtained and compared then in Table 2.\n(§2) In this experiment, to compare the growth inhibitory effect of Compound (1) with those of MAPK and PI3K signaling inhibitors, the IC50 values of trametinib (as a MEK inhibitor), and Alpelisib (as a PI3K inhibitor) were obtained and compared."}, "[3]": {"tested_on": "LU65", "assay": "3-day growth inhibition assay", "type": "cell-based", "settings": "Homo sapiens, Lu-65; LU65 (NSCLC), KRAS p.G12C; read-out: Growth inhibition (IC50: nmol/L)", "protocol": "(§3) The IC50 values for each compound in cell lines used in a series of animal experiments evaluating the antitumor effects of Compound (1) on KRAS mutant tumor xenografts were determined by a 3-day growth inhibition assay (Table 7)."}, "[4]": {"tested_on": "AsPC-1", "assay": "3-day growth inhibition assay", "type": "cell-based", "settings": "Homo sapiens, ASPC1; AsPC-1 (Pancreas), KRAS p.G12D; read-out: Growth inhibition (IC50: nmol/L)", "protocol": "as §3"}, "[5]": {"tested_on": "LS180", "assay": "3-day growth inhibition assay", "type": "cell-based", "settings": "Homo sapiens; LS180 (Colon), KRAS p.G12D, PIK3CA p.H1047R, PTEN p.I67K; read-out: Growth inhibition (IC50: nmol/L)", "protocol": "as §3"}, "[6]": {"tested_on": "SW1573", "assay": "3-day growth inhibition assay", "type": "cell-based", "settings": "Homo sapiens; SW1573 (NSCLC), KRAS p.G12C, PIK3CA p.K111E; read-out: Growth inhibition (IC50: nmol/L)", "protocol": "as §3"}, "[7]": {"tested_on": "PTEN-mutated MFE-319 cells", "assay": "dose-dependent apoptosis induction", "type": "cell-based, human", "settings": "MFE-319, 48 hour, compared to control"}, "[8]": {"tested_on": "MDA-MB-231", "assay": "growth inhibition assay, NF1 mutant cell line", "type": "cell-based", "settings": "Homo sapiens; MDA-MB-231, TN breast, NF1 p.T467Hfs*3", "from_the_text": "as §1, §2"}, "[9]": {"tested_on": "H1838", "assay": "growth inhibition assay, NF1 mutant cell line", "type": "cell-based", "settings": "Homo sapiens, NCI-H1838; H1838, lung, NF1 p.N184Qfs*17", "from_the_text": "as §1, §2"}, "[10]": {"tested_on": "HCT116", "assay": "growth inhibition assay, NF1 mutant cell line", "type": "cell-based", "settings": "Homo sapiens, HCT-116; HCT116, colon, NF1 p.P678Rfs*10, p.P388T", "from_the_text": "as §1, §2"}, "[11]": {"tested_on": "MeWo", "assay": "growth inhibition assay, NF1 mutant cell line", "type": "cell-based", "settings": "Homo sapiens, melanoma, NF1 p.Q1336*", "from_the_text": "as §1, §2"}, "[12]": {"tested_on": "RKO", "assay": "growth inhibition assay, NF1 mutant cell line", "type": "cell-based", "settings": "Homo sapiens, colon", "from_the_text": "as §1, §2"}, "[13]": {"tested_on": "MDA-MB-175VII", "assay": "growth inhibition assay, NF1 mutant cell line", "type": "cell-based", "settings": "Homo sapiens, ER+ breast, NF1 p.1679Dfs*21", "from_the_text": "as §1, §2"}, "[14]": {"tested_on": "HCC202", "assay": "growth inhibition assay, NF1 mutant cell line", "type": "cell-based", "settings": "HCC202, HER2+ breast, NF1 p.X465_splice", "from_the_text": "as §1, §2"}, "[15]": {"tested_on": "BT483", "assay": "growth inhibition assay, NF1 mutant cell line", "type": "cell-based", "settings": "Homo sapiens, BT-483; BT483, ER+ breast, NF1 p.R1204W", "from_the_text": "as §1, §2"}, "[16]": {"tested_on": "cancer cell lines derived from various human cancer origins", "assay": "cell growth inhibition assay, cell panel, CellTiter Glo 2.0", "type": "cell-based", "settings": "72 hour, FIG. 4A", "protocol": "Cell growth inhibition assay was conducted according to 72 hour-standard protocol by CellTiter Glo 2.0 Assay."}, "[17]": {"tested_on": "PTEN-mutated HEC-6 cells", "assay": "dose-dependent apoptosis induction", "type": "cell-based, human", "settings": "HEC-6, 48 hour, compared to control"}, "[18]": {"tested_on": "MCF7 cells (control and NF1 knockdown)", "assay": "immunoblotting of target inhibition and apoptosis induction", "type": "cell-based, human", "protocol": "(§4) To investigate the mechanism of action of Compound (1) in inhibiting the growth of NF1 knockdown breast cancer cells, Compound (1), trametinib, Alpelisib, and fulvestrant were exposed to NF1-knockdown MCF7 and T47D cells at indicated final concentration for 24 hours. NF1, pPRAS40 Thr246, pYB1 Ser102, pS6RP Ser235/236, ERα, and cleaved PARP were detected by immunoblotting."}, "[19]": {"tested_on": "AsPC-1 human pancreatic tumor xenografts", "settings": "for T/C ratio (%): Day 22; for Tumor volume (mm^3) Day 22 Mean ± SE: qd Day 1-21, po"}, "[20]": {"tested_on": "T47D cells (control and NF1 knockdown)", "assay": "immunoblotting of target inhibition and apoptosis induction", "type": "cell-based", "protocol": "as §4"}, "[21]": {"tested_on": "ER+/HER2− breast cancer cell lines", "assay": "immunoblotting, combination with fulvestrant, presence and absence of estrogen and NF1", "type": "cell-based", "settings": "single agent; presence or absence of estrogen; NF1 wildtype and NF1 knockdown cells", "protocol": "The actual standard of care for ER+/HER2− breast cancer uses the adjuvant therapies such as tamoxifen, letrozole, or fulvestrant. Patients with recurrent or refractory tumors are treated with additional use of CDK4/6 inhibitors or Alpelisib for PIK3CA-mutated cancers."}, "[22]": {"tested_on": "SW1573 human lung tumor xenografts", "settings": "for T/C ratio (%): Day 15; for Number of deaths / Tumor volume (mm^3) Day 15 Mean ± SE: qd Day 1-14, po"}}, "note": "Like-named read-outs stand apart in the source and are kept apart here.", "data": [{"smiles": "CC(C)(C)NCCNc1ccc(-c2nnc(C(F)(F)F)o2)nc1C1CCN(c2ncnc3c2C(C)(C)C(=O)N3)CC1", "note": "[Compound (1), 4-(4-(3-((2-(tert-butylamino)ethyl)amino)-6-(5-(trifluoromethyl)-1,3,4-oxadiazol-2-yl)pyridin-2-yl)piperidin-1-yl)-5,5-dimethyl-5H-pyrolo[2,3-d]pyrimidin-6(7H)-one]", "values": [{"measurement": "Number of deaths", "setting": "[1]", "value": 0}, {"measurement": "T/C ratio (%)", "setting": "[1]; Day 15", "value": 59, "unit": "%"}, {"measurement": "Tumor volume (mm^3) Day 15 Mean ± SE", "setting": "[1]; qd Day 1-14, po", "value": "867.8 ± 210.6", "unit": "mm^3"}, {"measurement": "IC50", "setting": "[2]", "value": "< 1000", "unit": "nM"}, {"measurement": "IC50", "setting": "[3]", "value": 92.9, "unit": "nmol/L"}, {"measurement": "IC50", "setting": "[4]", "value": 184, "unit": "nmol/L"}, {"measurement": "IC50", "setting": "[5]", "value": 316, "unit": "nmol/L"}, {"measurement": "IC50", "setting": "[6]", "value": 139, "unit": "nmol/L"}, {"measurement": "levels of cleaved caspase-3 and cleaved PARP", "setting": "[7]", "value": "increased cleaved caspase-3 and cleaved PARP in a concentration dependent manner"}, {"measurement": "IC50", "setting": "[8]", "value": 2810, "unit": "nM"}, {"measurement": "IC50", "setting": "[9]", "value": 344, "unit": "nM"}, {"measurement": "IC50", "setting": "[10]", "value": 355, "unit": "nM"}, {"measurement": "IC50", "setting": "[11]", "value": 844, "unit": "nM"}, {"measurement": "IC50", "setting": "[12]", "value": 118, "unit": "nM"}, {"measurement": "IC50", "setting": "[13]", "value": 70, "unit": "nM"}, {"measurement": "IC50", "setting": "[14]", "value": 157, "unit": "nM"}, {"measurement": "IC50", "setting": "[15]", "value": 128, "unit": "nM"}, {"measurement": "growth inhibition in cancer cell panel", "setting": "[16]", "value": "potent growth inhibition"}, {"measurement": "levels of cleaved caspase-3 and cleaved PARP", "setting": "[17]", "value": "increased cleaved caspase-3 and cleaved PARP in a concentration dependent manner"}, {"measurement": "signals of pPRAS40, pYB1, and pS6RP (target inhibition)", "setting": "[18]; MCF7, control and NF1 knockdown, 24 hours, immunoblot", "value": "decreased the signals of pPRAS40, pYB1, and pS6RP in a concentration-dependent manner"}, {"measurement": "apoptosis induction (cleaved PARP signal)", "setting": "[18]; MCF7 NF1 knockdown cells versus control cells", "value": "did not exhibit the attenuation of apoptosis induction"}, {"measurement": "apoptosis induction (cleaved PARP signal)", "setting": "[18]; MCF7 control cells (non-targeting siRNA), single agent", "value": "induced apoptosis"}, {"measurement": "Number of deaths", "setting": "[19]; 40 mg/kg/day", "value": 0}, {"measurement": "T/C ratio (%)", "setting": "[19]; 40 mg/kg/day", "value": 91, "unit": "%"}, {"measurement": "Tumor volume (mm^3) Day 22 Mean ± SE", "setting": "[19]; 40 mg/kg/day", "value": "860.1 ± 112.1", "unit": "mm^3"}, {"measurement": "Number of deaths", "setting": "[19]; 80 mg/kg/day", "value": 0}, {"measurement": "T/C ratio (%)", "setting": "[19]; 80 mg/kg/day", "value": 69, "unit": "%"}, {"measurement": "Tumor volume (mm^3) Day 22 Mean ± SE", "setting": "[19]; 80 mg/kg/day", "value": "648.0 ± 51.7", "unit": "mm^3"}, {"measurement": "weight reduction or tolerability", "setting": "[19]; mouse, in vivo", "value": "no significant changes in weight reduction or tolerability"}, {"measurement": "apoptosis induction (cleaved PARP signal)", "setting": "[20]; T47D NF1 knockdown cells versus control cells", "value": "remarkably higher level in NF1 knockdown cells than control cells"}, {"measurement": "signals of pPRAS40, pYB1, and pS6RP (target inhibition)", "setting": "[20]; T47D, control and NF1 knockdown, 24 hours, immunoblot", "value": "decreased the signals of pPRAS40, pYB1, and pS6RP in a concentration-dependent manner"}, {"measurement": "apoptosis induction", "setting": "[21]", "value": "observed"}, {"measurement": "T/C ratio (%)", "setting": "[22]; 30 mg/kg/day", "value": 55, "unit": "%"}, {"measurement": "Number of deaths", "setting": "[22]; 30 mg/kg/day", "value": 0}, {"measurement": "Tumor volume (mm^3) Day 15 Mean ± SE", "setting": "[22]; 30 mg/kg/day", "value": "438.6 ± 81.1", "unit": "mm^3"}, {"measurement": "T/C ratio (%)", "setting": "[22]; 60 mg/kg/day", "value": 38, "unit": "%"}, {"measurement": "Number of deaths", "setting": "[22]; 60 mg/kg/day", "value": 0}, {"measurement": "Tumor volume (mm^3) Day 15 Mean ± SE", "setting": "[22]; 60 mg/kg/day", "value": "305.6 ± 33.0", "unit": "mm^3"}]}]}
